Experimental data taken from PubChem BioAssay AID1259418 (Broad Institute, 2018).
Several values for one entry are separate records, joined by “and”; a condition that tells them apart may be missing. Equal entries are not always repeated. Results filed as inconclusive are left out. Activity calls are given as the source filed them.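 How the source made its calls: active means fitted half-maximal concentration of signal decrease at or below twice the sample's top tested concentration; inconclusive means flat curve between -70 and -30 percent, or poor fit; inactive means flat within 30 percent, signal rise, or potency above limit.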 Starred links: 1 amine or outer side, 2 acyl side, 3 side chain; linkers in the order of their positions; H or OH if unused. Non-standard residues stand in square brackets, D forms with d. Residues, ends and D or L forms follow the SMILES beside them. Groups on a side chain read outwards from the residue. *: point of attachment. Ethylenediamine = C(CN[*:2])N[*:1]; Hyp = O=C(O)[C@@H]1C[C@@H](O)CN1; Phg = N[C@H](C(=O)O)c1ccccc1; CO = O=C([*:1])[*:2]; Bn = c1ccc(C*)cc1

Each compound was assayed against T. gondii ME49Luc in IFN-y HeLa, luciferase, 72 h (assay: inhibitors of Toxoplasma growth in IFN-γ-primed HeLa – cell-based, ME49Luc, luciferase, 72 h, dose response (AID 1259418)).
In the case of `O=S(=O)(c1ccc2c(c1)CCCC2)N1CCC2(CC1)NCCN=C2NCc1ccc(F)cc1`, the AC50 is reported as 9.4 µM. Compound `COc1ccc(-n2c(C)c([N+](=O)[O-])c3ccc(O)cc32)cc1` has an AC50 of 1.41 µM. `CCCNC(=O)N1C[C@@H]2N[C@H](C1)C2c1ccc(-c2cccc(F)c2)cc1` (stereo not given in full) showed an AC50 of 18.2 µM. `COc1cccc(S(=O)(=O)N2CCCCN3[C@H](CO)[C@H](c4ccc(-c5ccccc5)cc4)[C@H]3C2)c1` was tested, and the AC50 was 5.11 µM. `O=C(C[C@H]1CC[C@@H]2[C@H](COC[C@@H](O)CN2Cc2ccc(Oc3ccccc3)cc2)O1)N1CCN(c2ccccc2)CC1` was tested, and the AC50 was 24 µM. `O=C(Nc1cccc(F)c1)N1CCCCN2[C@H](C1)[C@@H](c1ccc(C#Cc3cccnc3)cc1)[C@@H]2CO` was tested, and the AC50 was 10.3 µM. `O=C(C[C@@H]1CC[C@@H]2[C@H](COC[C@@H](O)CN2Cc2ccc(Oc3ccccc3)cc2)O1)N1CCN(c2ccccc2)CC1` was tested, and the AC50 was 20.7 µM. In the case of `OC[C@@H]1Nc2ccc(-c3cccc(F)c3)cc2[C@@H]2[C@H]1CCN2Cc1ccc(F)cc1`, the AC50 is reported as 18.5 µM. In the case of `O=C(Nc1ccccc1)c1ncn2c1CN(CC1CC1)S(=O)(=O)c1ccccc1-2`, the AC50 is reported as 32.6 µM. `COc1ccc(N2CC(NC(=O)C(=O)c3c[nH]c4ccccc34)CC2=O)cc1` (stereo not given) was tested, and the AC50 was 28.3 µM. Compound `Clc1ccc(-c2nc(N3CCC(N4CCCCC4)CC3)c3ccccc3n2)cc1` has an AC50 of 18.4 µM. With `CC(C)C#Cc1ccc([C@@H]2[C@@H](CO)N(C(=O)c3cccc(F)c3)[C@H]2C#N)cc1` the AC50 was 14.2 µM and 27.9 µM. Compound `CN(C)C(=O)c1ccc(-c2ccc(C3[C@@H]4CN(Cc5ccc6c(c5)OCO6)C[C@H]3N4)cc2)cc1` (stereo not given in full) has an AC50 of 17.3 µM. In the case of `NCCCC[C@@H]1NC(=O)[C@@H](Cc2c[nH]c3ccccc23)NC(=O)[C@H](c2ccccc2)NC(=O)[C@@H]2C[C@@H](OC(=O)NCCN)CN2C(=O)[C@H](Cc2ccccc2)NC(=O)[C@H](Cc2ccc(OCc3ccccc3)cc2)NC1=O` (cyclo([Hyp]([CO-Ethylenediamine])[Phg][dW]KY(Bn)F)), the AC50 is reported as 15.9 µM. For `N#C[C@@H]1[C@H](c2ccc(-c3cccc(F)c3)cc2)[C@@H](CO)N1C(=O)NC1CCCC1`, the AC50 was 20.4 µM. `O=S(=O)(c1ccc2c(c1)CCCC2)N1CCC2(CC1)NCCN=C2NCc1cccc(F)c1` was tested, and the AC50 was 5.26 µM. Compound `Cc1oc(-c2cccc(Cl)c2)nc1CN1CCc2c(sc3c2CCCC3)C1c1ccccc1` (stereo not given) has an AC50 of 6.85 µM. In the case of `O=C(NCc1cncc2c1CCN(Cc1cccc(F)c1)C2)C1CC1`, the AC50 is reported as 8.45 µM. `N#Cc1cccc(-c2ccc(C3[C@@H]4CN(C(=O)c5ccc6c(c5)OCO6)C[C@H]3N4)cc2)c1` (stereo not given in full) was tested, and the AC50 was 14.5 µM and 9.62 µM. For `Cc1cccc(-c2nc(CN(c3ccccc3)S(=O)(=O)c3ccccc3)c(C)o2)c1`, the AC50 was 5.9 µM and 16.3 µM. `CC(C)Cc1ccc(S(=O)(=O)N2CCC3(CC2)NCCN=C3NCc2cccc(F)c2)cc1` was tested, and the AC50 was 5.25 µM. With `Cc1ccc(OCC(=O)Nc2ccc(-c3nc(-c4ccccc4)co3)cc2)cc1` the AC50 was > 39 µM (inactive). `C/C=C/c1ccc([C@@H]2[C@@H](CO)N3CCCCN(CCC(F)(F)F)C[C@@H]23)cc1` showed an AC50 of 17.4 µM. `Cc1ccc(S(=O)(=O)N2CCC3(CC2)NCCN=C3NCc2ccccc2)c(C)c1` gave an AC50 of 19.2 µM. For `COc1ccccc1NC(=O)N1C[C@@H]2N[C@H](C1)C2c1ccc(/C=C/c2ccccc2)cc1` (stereo not given in full), the AC50 was 6.84 µM and 4.45 µM and 4.22 µM. With `O=C(NCCc1csc(-c2ccccc2)n1)C1CCN(S(=O)(=O)c2cccc(Cl)c2)CC1` the AC50 was > 39 µM (inactive). `COc1ccc(-c2ccc3c(c2)[C@@H]2[C@@H](CCN2C(=O)c2cccc(F)c2)[C@H](CO)N3)cc1` showed an AC50 of 26.9 µM. `Cc1ccc(-c2coc(-c3ccc(NC(=O)Nc4cc(F)ccc4F)cc3)n2)cc1` gave an AC50 of 27.7 µM. In the case of `Clc1cncc(OC[C@H]2CO[C@@H]3CN(Cc4cccs4)C[C@@H]23)c1`, the AC50 is reported as 15.3 µM. `Cc1cccc(CNC2=NCCNC23CCN(S(=O)(=O)c2cc(C)cc(C)c2)CC3)c1` was tested, and the AC50 was 25.7 µM. In the case of `CCc1c(C)sc2c1CCN(Cc1nc(-c3ccc(OC(C)C)cc3)oc1C)C2c1ccccc1` (stereo not given), the AC50 is reported as > 39 µM (inactive). For `O=C(CCCCCNc1nc(=S)[nH]c2ccccc12)N1CCC(O)(c2cccc(C(F)(F)F)c2)CC1`, the AC50 was > 39 µM (inactive). Compound `COCC1(C(=O)N2CCc3c(nc(-c4ccccc4)[nH]c3=O)C2)CCC1` has an AC50 of 36.2 µM. `NCCCCCCCCCCNS(=O)(=O)c1cccc2c(Cl)cccc12` gave an AC50 of 21.2 µM. Work on `O=C1CCc2cc(NC(=O)c3ccccc3F)ccc2N1` yielded an AC50 of 29.7 µM. In the case of `Cc1ccccc1-c1ccc(C2[C@@H]3CN(C(=O)C4CCOCC4)C[C@H]2N3)cc1` (stereo not given in full), the AC50 is reported as 26.4 µM. Compound `Cc1ccc(S(=O)(=O)N2CCC3(CC2)NCCN=C3NCc2ccccc2F)cc1C` has an AC50 of 22.5 µM. For `CN(C)C(=O)c1cccc(-c2ccc3c(c2)[C@@H]2[C@@H](CCN2C(=O)Cc2ccccc2)[C@@H](CO)N3)c1`, the AC50 was 17.6 µM. Work on `O=C(CCC1N=C2c3ccccc3N=C(SCc3cccc(Cl)c3)N2C1=O)NCc1cccs1` (stereo not given) yielded an AC50 of 5.48 µM. Compound `CCCCCCC(C)(C)c1ccc(C2CC(O)CCC2CCCO)c(O)c1` (stereo not given) has an AC50 of 8.47 µM. With `Cc1nc(OCC(=O)Nc2cc(F)ccc2F)c2ccccc2n1` the AC50 was > 39 µM (inactive). With `Cc1cccc(NC(=O)COc2nc(C)nc3ccccc23)c1` the AC50 was 32 µM. With `COc1ccc(-c2ccc(C3[C@@H]4CN(C(=O)c5ccc(F)cc5)C[C@H]3N4)cc2)cc1` (stereo not given in full) the AC50 was 15.8 µM and 11.3 µM. `COc1ccc(-n2nnc3c(N4CCN(C(=O)C(=O)c5c[nH]c6ccccc56)CC4)ncnc32)cc1` was tested, and the AC50 was 20.3 µM. With `CCN1CCCC1CNC(=O)C1CCN(Cc2cc3ccccc3n2Cc2cccc(C)c2)CC1` (stereo not given) the AC50 was 25.5 µM.
